Measured values published in patent publication US20230118688A1, “1H-PYRAZOLO[4,3-d]PYRIMIDINE COMPOUNDS AS TOLL-LIKE RECEPTOR 7 (TLR7) AGONISTS” (BRISTOL-MYERS SQUIBB COMPANY, priority 2020, published 2023).
Read-outs that look alike come from different tables or passages of the source.

Legend:
human TLR7 = target: T1, human TLR7 (Homo sapiens, UniProt Q9NYK1); assay: Human TLR7 agonist activity reporter assay (HEK-Blue TLR7 cells, SEAP reporter); format: cell-based; details: 18 h treatment
T1 construct: host or cells: HEK-Blue TLR7 cells (engineered human embryonic kidney cells)
T1 sequence (Q9NYK1 27-1049): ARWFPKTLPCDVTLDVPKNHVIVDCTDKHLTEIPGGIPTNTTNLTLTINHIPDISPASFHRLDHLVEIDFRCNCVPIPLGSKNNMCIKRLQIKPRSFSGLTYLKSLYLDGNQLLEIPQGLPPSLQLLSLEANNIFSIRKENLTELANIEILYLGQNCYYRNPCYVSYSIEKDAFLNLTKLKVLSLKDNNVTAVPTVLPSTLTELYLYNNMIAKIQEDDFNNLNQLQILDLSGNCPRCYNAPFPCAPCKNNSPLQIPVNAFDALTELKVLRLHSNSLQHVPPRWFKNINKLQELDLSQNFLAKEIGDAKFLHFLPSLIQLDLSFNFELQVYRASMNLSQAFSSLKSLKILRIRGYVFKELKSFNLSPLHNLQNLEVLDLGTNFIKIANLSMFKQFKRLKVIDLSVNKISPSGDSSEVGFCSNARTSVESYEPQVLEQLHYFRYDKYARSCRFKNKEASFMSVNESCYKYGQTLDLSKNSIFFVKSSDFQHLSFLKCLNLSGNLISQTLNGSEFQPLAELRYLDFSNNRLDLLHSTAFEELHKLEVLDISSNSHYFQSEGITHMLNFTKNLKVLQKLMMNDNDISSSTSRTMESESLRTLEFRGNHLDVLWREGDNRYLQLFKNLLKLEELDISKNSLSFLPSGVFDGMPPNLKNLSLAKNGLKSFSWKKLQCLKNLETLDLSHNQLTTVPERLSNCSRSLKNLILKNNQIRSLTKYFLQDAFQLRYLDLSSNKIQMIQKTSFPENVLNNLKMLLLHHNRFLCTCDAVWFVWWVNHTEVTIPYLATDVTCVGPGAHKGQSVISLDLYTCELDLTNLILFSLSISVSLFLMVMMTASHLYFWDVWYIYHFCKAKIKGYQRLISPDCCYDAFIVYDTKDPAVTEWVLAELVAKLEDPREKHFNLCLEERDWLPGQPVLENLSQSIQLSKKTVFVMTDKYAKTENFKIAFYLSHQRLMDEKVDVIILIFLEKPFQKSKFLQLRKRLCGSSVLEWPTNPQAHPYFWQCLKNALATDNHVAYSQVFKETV
Procedure, shortened: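 HEK-Blue TLR7 cells (15,000/well) treated with compound for 18 h at 37 °C, 5% CO2. Secreted SEAP measured with Quanti-Blue, 30 min, OD 620 nm. EC50 taken as concentration giving half-maximal response between baseline and maximum.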

CD69 = assay: Induction of CD69 in human whole blood; format: cell-based; details: 17 h, CD69 surface staining, 100% set to 1 uM resiquimod
Description: The induction of Type I interferon (IFN) MX-1 genes and the B-cell activation marker CD69 are downstream events that occur upon activation of the TLR7 pathway. The following is a human whole blood assay that measures their induction in response to a TLR7 agonist.
Heparinized human whole blood was harvested from human subjects and treated with test TLR7 agonist compounds at 1 mM. The blood was diluted with RPMI 1640 media and Echo was used to predot 10 nL per well giving a final concentration of 1 uM (10 nL in 10 uL of blood). After mixing on a shaker for 30 sec, the plates were covered and placed in a 37° C. chamber for o/n=17 hrs. Fixing/lysis buffer was prepared (5×->1× in H2O, warm at 37° C.; Cat #BD 558049) and kept the perm buffer (on ice) for later use.
For surface markers staining (CD69): prepared surface Abs: 0.045 ul hCD14-FITC (ThermoFisher Cat #MHCD1401)+0.6 ul hCD19-ef450 (ThermoFisher Cat #48-0198-42)+1.5 ul hCD69-PE (cat #BD555531)+0.855 ul FACS buffer. Added 3 ul/well, spin1000 rpm for 1 min and mixed on shaker for 30 sec, put on ice for 30 mins. Stop stimulation after 30 minutes with 70 uL of prewarmed 1× fix/lysis buffer and use Feliex mate to resuspend (15 times, change tips for each plate) and incubate at 37C for 10 minutes.
Centrifuge at 2000 rpm for 5 minutes aspirate with HCS plate washer, mix on shaker for 30 sec and then wash with 70 uL in dPBS and pelleted 2×s (2000 rpm for 5 min) and 50 ul wash in FACS buffer pelleted 1×s(2000 rpm for 5 min). Mix on shaker for 30 sec. For Intracellular markers staining (MX-1): Add 50 ul of BD Perm buffer III and mix on shaker for 30 sec. Incubate on ice for 30 minutes (in the dark). Wash with 50 uL of FACS buffer 2× (spin @2300 rpm×5 min after perm) followed by mixing on shaker for 30 sec. Resuspended in 20 ul of FACS buffer containing MX1 antibody ( ) (4812)-Alexa 647: Novus Biologicals #NBP2-43704AF647) 20 ul FACS bf+0.8 ul hlgG+0.04 ul MX-1. Spin 1000 rpm for 1 min, mix on shaker for 30se and the samples were incubated at RT in the dark for 45 minutes followed by washing 2×FACS buffer (spin @2300 rpm×5 min after perm). Resuspend 20 ul (35 uL total per well) of FACS buffer and cover with foil and place in 4° C. to read the following day. Plates were read on iQuePlus. The results were loaded into toolset and IC50 curves are generated in curve master. The y-axis 100% is set to 1 uM of resiquimod.

[1] = average where assay repeated, Table A1, read-out: hTLR7 Agonism EC50
[2] = average where assay repeated, Table A1, read-out: hWB CD69 EC50
[3] = Table A2, read-out: hTLR7 Agonism EC50
[4] = Table A2, read-out: hWB CD69 EC50

| Compound | EC50 (human TLR7; [1]) | EC50 (CD69; [2]) | EC50 (human TLR7; [3]) | EC50 (CD69; [4]) |
| --- | --- | --- | --- | --- |
| CCCCNc1nc(N)nc2cnn(Cc3cc(CN4CCN(CCO)CC4)ccc3OC)c12 [Compound 127, 2-{4-[(3-{[5-amino-7-(butylamino)-1H-- pyrazolo[4,3-d]pyrimidin-1-yl]methyl}-4-methoxy-phenyl)methyl]piperazin-1-yl}ethan-1-ol] | 107 nM | 47.5 nM | – | – |
| CCCCNc1nc(N)nc2cnn(Cc3cc(CN)ccc3OC)c12 [Compound 114, 1-{[5-(aminomethyl)-2-methoxyphenyl]methyl}-N7-butyl-1H-pyrazolo[4,3-d]pyrimidine-5,7-diamine] | 234 nM | 6.7 nM | – | – |
| CCCCNc1nc(N)nc2cnn(Cc3cc(CN4CCCN(C)CC4)ccc3OC)c12 [Compound 131, N7-butyl-1-({2-methoxy-5-[(4-methyl-1,4-diazepan-1-yl)methyl]phenyl}methyl)-1H-pyrazolo[4,3-d] pyrimidine-5,7-diamine] | 112 nM | 85.9 nM | – | – |
| COc1ccc(CN2CC(OC)C2)cc1Cn1ncc2nc(N)nc(NCC[C@H](O)C3CC3)c21 [Compound 160, (1S)-3-{[5-amino-1-({2-methoxy-5-[(3-methoxy-azetidin-1-yl)methyl]phenyl}-methyl)-1H-pyrazolo[4,3-d]pyrimidin-7-yl]amino}-1-cyclopropylpropan-1-ol] | 740 nM | 151 nM | – | – |
| CCCCNc1nc(N)nc2cnn(Cc3cc(CNC(=O)CN(C)C)ccc3OC)c12 [Compound 136, N-[(3-{[5-amino-7-(butyl-amino)-1H-pyrazolo[4,3-d]pyrimidin-1-yl]methyl}-4-methoxyphenyl)methyl]-2-(dimethylamino)acetamide] | 51.1 nM | 19.1 nM | – | – |
| CCCCNc1nc(N)nc2cnn(Cc3cc(CN4CC(N(C)C)C4)ccc3OC)c12 [Compound 137, N7-butyl-1-[(5-{[3-(dime-thylamino)azetidin-1-yl]-methyl}-2-methoxyphenyl)methyl]-1H-pyrazolo-[4,3-d]pyrimidine-5,7-diamine] | 114 nM | 28.1 nM | – | – |
| CCC[C@@H](CCO)Nc1nc(N)nc2cnn(Cc3cc(CN4CC(O)C4)c(F)cc3OC)c12 [Compound 166, 1-({5-[(5-amino-7-{[(3S)-1-hydroxyhexan-3-yl]amino}-1H-pyrazolo[4,3-d]pyrimidin-1-yl)methyl]-2-fluoro-4-methoxyphenyl}-methyl)azetidin-3-ol] | – | – | 116 nM | 34.2 nM |
| CCCCNc1nc(N)nc2cnn(Cc3cc(CN4CC(F)(F)C4)ccc3OC)c12 [Compound 151, N7-butyl-1-({5-[(3,3-difluoro-azetidin-1-yl)methyl]-2-methoxyphenyl}methyl)-1H-pyrazolo[4,3-d] pyrimidine-5,7-diamine] | 768 nM | ≥ 1000 nM | – | – |
| CCC[C@@H](CCO)Nc1nc(N)nc2cnn(Cc3cc(CNC)ncc3OC)c12 [Compound 178, (3S)-3-{[5-amino-1-({5-methoxy-2-[(methylamino)methyl]pyridin-4-yl}methyl)-1H-pyrazolo[4,3-d]pyrimidin-7-yl]amino}hexan-1-ol] | – | – | 617 nM | 33.9 nM |
| CCCCNc1nc(N)nc2cnn(Cc3cc(CN4CCNCC4)ccc3OC)c12 [Compound 134, N7-butyl-1-({2-methoxy-5-[(piperazin-1-yl)methyl]-phenyl}methyl)-1H-pyrazolo[4,3-d]pyrimidine-5,7-diamine] | 201 nM | 62.5 nM | – | – |
| CCC[C@@H](CCO)Nc1nc(N)nc2c(C)nn(Cc3cc(CNC4CCOCC4)ccc3OC)c12 [Compound 162, (3S)-3-({5-amino-1-[(2-methoxy-5-{[(oxan-4-yl)amino]methyl}phenyl)methyl]-3-methyl-1H-pyrazolo[4,3-d]pyrimidin-7-yl}amino)-hexan-1-ol] | 294 nM | 90.3 nM | – | – |
| CCCCNc1nc(N)nc2cnn(Cc3cc(CNC)ccc3OC)c12 [Compound 132, N7-butyl-1-(2-methoxy-5-((methylamino)methyl)benzyl)-1H-pyrazolo[4,3-d]pyrimidine-5,7-diamine] | 187 nM | 10.9 nM | – | – |
| N7-butyl-1-{[2-methoxy-5- ({octahydropyrrolo[3,4-c]- pyrrol-2-yl}methyl)phenyl]- methyl}-1H-pyrazolo[4,3- d]pyrimidine-5,7-diamine [Compound 135] | 448 nM | 325 nM | – | – |
| CCCCNc1nc(N)nc2cnn(Cc3cc(CN4CC5(COC5)C4)ccc3OC)c12 [Compound 124, N7-butyl-1-{[2-methoxy-5-({2-oxa-6-azaspiro-[3.3]heptan-6-yl}-methyl)phenyl]methyl}-1H-pyrazolo[4,3-d]pyrimidine-5,7-diamine] | 190 nM | 86.3 nM | – | – |
| CCC[C@@H](CCO)Nc1nc(N)nc2c(C)nn(Cc3cc(CN4CCN(C)CC4)ccc3OC)c12 [Compound 164, (3S)-3-{[5-amino-1-({2-methoxy-5-[(4-methylpiperazin-1-yl)methyl]phenyl}methyl)-3-methyl-1H-pyrazolo[4,3-d]pyrimidin-7-yl]amino}hexan-1-ol] | 48.5 nM | 21.7 nM | – | – |
| CCCCNc1nc(N)nc2cnn(Cc3cc(CNC4CC(O)C4)ccc3OC)c12 (stereo not drawn) [Compound 116, (1r,3r)-3-{[(3-{[5-amino-7-(butylamino)-1H-pyrazolo-[4,3-d]pyrimidin-1-yl]methyl}-4-methoxyphenyl)-methyl]amino}cyclobutan-1-ol] | 335 nM | 205 nM | – | – |
| CCC[C@@H](CCO)Nc1nc(N)nc2cnn(Cc3cc(CN4CC5(CN(C)C5)C4)ccc3OC)c12 [Compound 158, (3S)-3-[(5-amino-1-{[2-methoxy-5-({6-methyl-2,6-diazaspiro[3.3]heptan-2-yl}methyl)phenyl]methyl}-1H-pyrazolo[4,3-d]pyrimidin-7-yl)amino]-hexan-1-ol] | 604 nM | 199 nM | – | – |
| CCC[C@@H](CCO)Nc1nc(N)nc2cnn(Cc3cc(CNCCS(C)(=O)=O)c(F)cc3OC)c12 [Compound 173, (3S)-3-({5-amino-1-[(4-fluoro-5-{[(2-methanesulfonylethyl)amino]methyl}-2-methoxyphenyl)methyl]-1H-pyrazolo[4,3-d]pyrimidin-7-yl}amino)hexan-1-ol] | – | – | 40 nM | 23.2 nM |
